The values below come from PMC8873251, “An amiloride derivative is active against the F1Fo-ATP synthase and cytochrome bd oxidase of Mycobacterium tuberculosis” (Communications Biology, 2022).

Test [1] has as its target T1, cytochrome bd oxidase (Mycobacterium tuberculosis, UniProt L7N662+O06139).
T1 construct: gene cydA
Description: malate-driven oxygen consumption in IMVs pre-inhibited with TB47, titration; empty-vector control. Format: biochemical.

Test [2] has as its target T2, F1Fo-ATP synthase c-subunit (c-ring) (Mycolicibacterium phlei, UniProt A0A5N5V239).
T2 construct: gene atpE
Description: MALDI-MS time course of covalent c-subunit labelling. Format: binding.

Test [3] has as its target T2, F1Fo-ATP synthase c-subunit (c-ring). Description: MALDI-MS competition with DCCD labelling of purified c-ring. Format: binding.

pIC50: −log10 of the molar value.

T2 sequence (A0A5N5V239 1-86): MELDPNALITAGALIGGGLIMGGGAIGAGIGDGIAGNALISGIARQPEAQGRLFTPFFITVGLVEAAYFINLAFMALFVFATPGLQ
T1 sequence (O06139 entry or part of it): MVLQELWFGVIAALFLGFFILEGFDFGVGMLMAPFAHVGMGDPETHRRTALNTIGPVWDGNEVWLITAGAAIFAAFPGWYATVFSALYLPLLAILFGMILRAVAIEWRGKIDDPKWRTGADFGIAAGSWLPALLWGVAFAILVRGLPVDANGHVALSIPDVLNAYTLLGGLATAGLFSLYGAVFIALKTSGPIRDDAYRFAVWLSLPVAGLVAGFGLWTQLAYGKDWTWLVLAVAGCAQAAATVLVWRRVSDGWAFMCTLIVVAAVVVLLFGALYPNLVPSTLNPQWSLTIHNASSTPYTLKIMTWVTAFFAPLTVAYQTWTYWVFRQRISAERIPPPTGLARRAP
T1 sequence (L7N662 entry or part of it): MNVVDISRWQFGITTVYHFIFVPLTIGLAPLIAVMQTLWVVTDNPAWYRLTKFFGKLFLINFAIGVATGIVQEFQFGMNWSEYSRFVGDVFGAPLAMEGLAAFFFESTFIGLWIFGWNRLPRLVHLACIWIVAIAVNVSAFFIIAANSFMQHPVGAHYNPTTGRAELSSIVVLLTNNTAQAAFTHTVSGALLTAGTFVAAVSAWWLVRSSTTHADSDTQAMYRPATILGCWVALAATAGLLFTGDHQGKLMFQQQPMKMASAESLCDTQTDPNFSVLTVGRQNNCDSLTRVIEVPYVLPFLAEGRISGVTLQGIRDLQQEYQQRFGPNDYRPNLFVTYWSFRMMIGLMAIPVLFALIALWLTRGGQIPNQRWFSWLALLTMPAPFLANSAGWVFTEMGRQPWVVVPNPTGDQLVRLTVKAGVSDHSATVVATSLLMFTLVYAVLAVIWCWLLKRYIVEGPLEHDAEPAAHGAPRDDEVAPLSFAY

As for `N=C(N)NC(=O)c1nc(-c2cc3ccccc3o2)c(N)nc1N` [HM2-16F], the pIC50 (as a rule, the negative decadic logarithm of the IC50, by convention in mol/L) in test [1] was 4.67.

`C(=NC1CCCCC1)=NC1CCCCC1` [DCCD, N,N'-dicyclohexylcarbodiimide]: the “MALDI-MS time course of covalent c-subunit labelling” value in test [2] is recorded as “Time course of DCCD labelling in purified M. phlei c-rings in the presence of the indicated amounts of HMA”.

Turning to `N=C(N)NC(=O)c1nc(Cl)c(N2CCCCCC2)nc1N` [HMA, 5-(N,N-hexamethylene)amiloride], the “MALDI-MS competition with DCCD labelling of purified c-ring” value in test [3] is “HMA was able to outcompete the canonical c-ring covalent inhibitor DCCD for inhibition of the M. phlei F1Fo-ATP synthase c-subunit”.
